One experiment concerns the target T1, ACE-2 (Homo sapiens, UniProt Q9BYF1).
T1 construct: a stop codon inserted after the serine immediately preceding the transmembrane domain; made in house; host or cells: CHO K1 cells (transient transfection, purified from conditioned medium)
Description: ACE-2 Competitive Substrate Assay (ACS Assay). Type of experiment: biochemical. Conditions: Ki class per key; compounds tested in 5% DMSO, 12 compound concentrations, 25° C.; Ki=Kiapp/(1+[S]/Km); read-out: Human ACE-2 Activity.
T1 sequence (Q9BYF1 18-740 limits assumed): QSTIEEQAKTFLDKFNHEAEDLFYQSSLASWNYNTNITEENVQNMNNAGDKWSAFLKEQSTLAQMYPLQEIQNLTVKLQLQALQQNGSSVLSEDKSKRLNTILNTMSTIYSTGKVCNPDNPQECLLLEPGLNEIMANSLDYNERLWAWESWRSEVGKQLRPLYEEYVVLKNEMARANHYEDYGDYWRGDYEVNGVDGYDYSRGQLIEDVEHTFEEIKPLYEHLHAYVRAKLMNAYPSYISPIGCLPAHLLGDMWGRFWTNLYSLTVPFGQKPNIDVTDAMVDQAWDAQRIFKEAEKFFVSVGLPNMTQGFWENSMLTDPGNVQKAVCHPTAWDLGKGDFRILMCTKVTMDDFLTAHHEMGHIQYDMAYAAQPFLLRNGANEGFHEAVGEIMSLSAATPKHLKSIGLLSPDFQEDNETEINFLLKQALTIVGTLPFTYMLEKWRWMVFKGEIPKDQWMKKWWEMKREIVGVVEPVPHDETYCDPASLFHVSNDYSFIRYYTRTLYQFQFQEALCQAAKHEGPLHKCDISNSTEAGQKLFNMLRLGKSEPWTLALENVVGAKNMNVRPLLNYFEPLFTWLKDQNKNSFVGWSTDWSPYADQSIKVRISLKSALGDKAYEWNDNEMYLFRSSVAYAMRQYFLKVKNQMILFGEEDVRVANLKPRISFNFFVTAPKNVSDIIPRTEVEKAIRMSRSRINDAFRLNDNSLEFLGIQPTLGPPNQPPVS
Regarding `CC(C)C[C@H](N[C@@H](C/C=C\c1cc(Cl)cc(Cl)c1)C(=O)O)C(=O)O` (stereo in doubt) [PV, 2-(1-Carboxy-3-methyl-butylamino)-5-(3,5-dichloro-phenyl)-pent-4-enoic acid], the Ki was under 100 nM.

The experiment is the same for the next values; noted with them: Ki class; compounds tested in 5% DMSO, 12 compound concentrations, Ki=Kiapp/(1+[S]/Km); read-out: Human ACE-2 Activity.
On to `CC(C)CC(N[C@@H](Cc1cncn1Cc1cccc(C(F)(F)F)c1)C(=O)O)C(=O)O` (single isomer, unassigned) [JA, 2-[1-Carboxy-2-[3-(3-trifluoromethyl-benzyl)-3H-imidazol-4-yl]-ethylamino]4-methyl-pentanoic acid], for which the Ki is over 500 nM.

On to `CC(C)CC(N[C@@H](Cc1cncn1Cc1c(Cl)cccc1Cl)C(=O)O)C(=O)O` (single isomer, unassigned) [JD, 2-[1-Carboxy-2-[3-(2,6-dichloro-benzyl)-3H-imidazol-4-yl]-ethylamino]4-methyl-pentanoic acid], for which the Ki is over 500 nM. On to `CC(C)CC(N[C@@H](Cc1cncn1Cc1ccc2c(c1)OCO2)C(=O)O)C(=O)O` (single isomer, unassigned) [JF], for which the Ki is over 500 nM.

In the case of `CC(C)CC(N[C@@H](Cc1cncn1CC1CCCCC1)C(=O)O)C(=O)O` (single isomer, unassigned) [JG, 2-[1-Carboxy-2-(3-cyclohexylmethyl-3H-imidazol-4-yl)-ethylamino]4-methyl-pentanoic acid], the Ki is over 500 nM. Turning to `CC(C)CC(N[C@@H](Cc1cncn1CCC1CCCCC1)C(=O)O)C(=O)O` (single isomer, unassigned) [JJ, 2-[1-Carboxy-2-[3-(2-cyclohexyl-ethyl)-3H-imidazol-4-yl]-ethylamino]4-methyl-pentanoic acid], the Ki is over 500 nM. Turning to `CC(C)CC(N[C@@H](Cc1cncn1CCc1ccccc1)C(=O)O)C(=O)O` (single isomer, unassigned) [JL, 2-[1-Carboxy-2-[3-phenethyl-3H-imidazol-4-yl)-ethylamino]-4-methyl-pentanoic acid], the Ki was over 500 nM. Take `CCC(CC)Cn1cncc1C[C@H](NC(CC(C)C)C(=O)O)C(=O)O` (single isomer, unassigned) [JM, 2-[1-Carboxy-2-[3-(2-ethylbutyl)-3H-imidazol-4-yl]-ethylamino]-4-methyl-pentanoic acid]: the Ki was under 100 nM.

As for `CCC(CC)Cn1cncc1C[C@H](NC(CC(C)C)C(=O)O)C(=O)O` (single isomer, unassigned) [JN, 2-[1-Carboxy-2-[3-(2-ethylbutyl)-3H-imidazol-4-yl]-ethylamino]-4-methyl-pentanoic acid], the Ki is over 500 nM. With `CC(C)CC(N[C@@H](Cc1cncn1Cc1cccc(F)c1)C(=O)O)C(=O)O` (single isomer, unassigned) [JR, 2-[1-Carboxy-2-[3-(3-fluoro-benzyl)-3H-imidazol-4-yl]-ethylamino]4-methyl-pentanoic acid], the Ki was 100 to 500 nM. Same read-out and setting: as for `CC(C)CC(N[C@@H](Cc1csc(Cc2ccccc2)n1)C(=O)O)C(=O)O` (single isomer, unassigned) [JZ, 2-[2-(2-Benzyl-thiazol-4-yl)-1-carboxy-ethylamino]-4-methyl-pentanoic acid], the figure is over 500 nM. `Cc1nc(C[C@H](NC(CC(C)C)C(=O)O)C(=O)O)c(Cc2ccccc2)s1` (single isomer, unassigned) [KB, 2-[2-(5-Benzyl-2-methyl-thiazol-4-yl)-1-carboxy-ethylamino]-4-methyl-pentanoic acid]: the Ki was 100 to 500 nM.

As to `Cc1nc(C[C@H](NC(CC(C)C)C(=O)O)C(=O)O)c(Cc2ccccc2)s1` (single isomer, unassigned) [KC, 2-[2-(5-Benzyl-2-methyl-thiazol-4-yl)-1-carboxy-ethylamino]-4-methyl-pentanoic acid], the Ki is over 500 nM. In the case of `CC(C)C[C@H](N[C@@H](Cc1cncn1Cc1cc(Cl)cc(Cl)c1)C(=O)OCc1ccccc1)C(=O)O` (single isomer, unassigned) [LC, 2-(1-Benzyloxycarbonyl-2-[3-(3,5-dichloro-benzyl)-3H-imidazol-4-yl]-ethylamino]-4-methyl-pentanoic acid], the Ki is under 100 nM. Regarding `Cc1cc(C[C@H](NC(CC(C)C)C(=O)O)C(=O)O)no1` (stereo in doubt) [IM, 2-[1-Carboxy-2-(5-methyl-isoxazol-3-yl)-ethylamino]-4-methyl-pentanoic acid], the Ki was over 500 nM. Still for that read-out and setting: for `CC(C)C[C@H](N[C@@H](CC1COC(=O)N1Cc1cc(Cl)cc(Cl)c1)C(=O)O)C(=O)O` (stereo in doubt) [NE, (S,S,S)-2-{1-Carboxy-2-[3-(3,5-dichloro-benzyl)-2-oxo-oxazolidin-4-yl]-ethylamino}-4-methyl-pentanoic acid] the value was under 100 nM; for `CC(C)CC(N[C@@H](C[C@H]1COC(=O)N1Cc1cc(Cl)cc(Cl)c1)C(=O)O)C(=O)O` (stereo in doubt) [NN, (R,S,S)-2-{1-Carboxy-2-[3-(3,5-dichloro-benzyl)-2-oxo-oxazolidin-4-yl]-ethylamino}-4-methyl-pentanoic acid], 100 to 500 nM; for `CC(C)CC(N[C@@H](Cc1cn(Cc2cccc(F)c2F)cn1)C(=O)O)C(=O)O` (stereo partly shown) [IW, 2-[1-Carboxy-2-[1-(2,3-difluoro-benzyl)-1H-imidazol-4-yl]-ethylamino]4-methyl-pentanoic acid], over 500 nM. As to `CC(C)C[C@H](N[C@@H](Cc1csc(-c2cccc(C(F)(F)F)c2)n1)C(=O)O)C(=O)O` [KD, (S,S)-2-{1-Carboxy-2-[2-(3-trifluoromethyl-phenyl)-thiazol-4-yl-]-ethylamino}-4-methyl-pentanoic acid], the Ki was over 500 nM. As for `CC(C)C[C@H](N[C@@H](CCNC(=O)c1ccc2ccccc2c1)C(=O)O)C(=O)O` [KE], the Ki is over 500 nM. Still for that read-out and setting: as for `CC(C)C[C@H](N[C@@H](CCNS(=O)(=O)c1ccc(-c2ccccc2)cc1)C(=O)O)C(=O)O` [KF, 2-[3-(Biphenyl-4-sulfonylamino)-1-carboxy-propylamino]-4-methyl-pentanoic acid], the figure is 100 to 500 nM. On to `CC(C)C[C@H](N[C@@H](Cc1csc(-c2ccc(Cl)cc2Cl)n1)C(=O)O)C(=O)O` [KG, (S,S)-2-{1-Carboxy-2-[2-(2,4-dichloro-phenyl)-thiazol-4-yl-]-ethylamino}-4-methyl-pentanoic acid], for which the Ki was under 100 nM.

On to `CC(C)C[C@H](N[C@@H](Cc1csc(-c2ccc3c(c2)CCO3)n1)C(=O)O)C(=O)O` [KI, (S,S)-2-{1-Carboxy-2-[2(2,3-dihydro-benzofaran-5-yl]-thiazol-4-yl]-ethylamino}-4-methyl pentanoic acid], for which the Ki was under 100 nM.

For `CC(C)C[C@H](N[C@@H](Cc1csc(-c2ccc(F)c(Cl)c2)n1)C(=O)O)C(=O)O` [KJ, (S,S)-2-{1-Carboxy-2-[2-(3-chloro-4-fluoro-phenyl)-thiazol-4-yl-]-ethylamino}-4-methyl-pentanoic acid], the Ki is under 100 nM. The same measure, in the same setting: for `Cc1ccc(-c2nc(C[C@H](N[C@@H](CC(C)C)C(=O)O)C(=O)O)cs2)cc1` [KK, (S,S)-2-[1-Carboxy-2-(2-p-tolyl-thiazol-4-yl)-ethylamino]-4-methyl-pentanoic acid] the value was under 100 nM; for `CC(C)C[C@H](N[C@@H](Cc1cc(-c2ccccc2)on1)C(=O)O)C(=O)O` [KL, 2-[1-Carboxy-2-(5-phenyl-isoxazol-3-yl)-ethylamino]-4-methyl-pentanoic acid], 100 to 500 nM. With `CC(C)C[C@H](NC(=O)[C@@H](S)Cc1ccccc1)C(=O)O` [KM, 2-(2-Mercapto-3-phenyl-propionylamino)-4-methyl-pentanoic acid], the Ki was over 500 nM. With `CC(C)C[C@H](N[C@@H](CCNS(=O)(=O)c1ccc(-c2ccc(Cl)cc2)cc1)C(=O)O)C(=O)O` [KN, (S,S)-2-[1-Carboxy-3-(4′-chloro-biphenyl-4-sulfonylamino)-propylamino]-4-methyl-pentanoic acid], the Ki was over 500 nM.

As to `COc1cccc(C(=O)NCC[C@H](N[C@@H](CC(C)C)C(=O)O)C(=O)O)c1` [KO, 2-[1-Carboxy-3-(3-methoxy-benzoylamino)-propylamino]-4-methyl-pentanoic acid], the Ki was over 500 nM.

As for `CC(C)C[C@H](N[C@@H](CCNC(=O)c1cccc(Cl)c1)C(=O)O)C(=O)O` [KP, (S,S)-2-[1-Carboxy-3-(3-chloro-benzoylamino)-propylamino]-4-methyl-pentanoic acid], the Ki was over 500 nM.

The same experiment, now with this note: Ki class; compounds tested in 5% DMSO, 12 concentrations; read-out: Human ACE-2 Activity.
As to `CC(C)CC(N[C@@H](Cc1csc(-c2ccccc2)n1)C(=O)O)C(=O)O` (stereo in doubt) [GQ, 2-[1-Carboxy-2-[2-phenyl-thiazol-4-yl)-ethylamino]-4-methyl-pentanoic acid], the Ki is over 500 nM.

As to `O=C(O)[C@@H]1C[C@@H](C(=O)O)N1` [A, Azetidine-2,4-dicarboxylic acid], the Ki was over 500 nM.

`CCOC(=O)C(CCc1ccccc1)N[C@@H](CC(C)C)C(=O)O` (stereo partly shown) [B, 2-(1-Ethoxycarbonyl-3-phenyl-propylamino)-4-methyl-pentanoicacid]: the Ki is over 500 nM.

Regarding `CC(C)CC(N[C@@H](CN(Cc1ccccc1)c1ccccc1)C(=O)O)C(=O)O` (stereo partly shown) [GT, 2-[2-(Benzyl-phenyl-amino)-1-carboxy-ethylamino]-4-methyl-pentanoic acid], the Ki is over 500 nM. As for `O=C(O)[C@@H]1CCC[C@H](C(=O)O)N1` [H, Pipendine-2,6-dicarboxylic acid], the Ki is over 500 nM. Consider `C[C@@H](N[C@@H](CCCNC(=N)N)C(=O)O)C(=O)O` [I, 2-(1-Carboxy-ethylamino)-5-guanidino-pentanoic acid], for which the Ki was over 500 nM.

In the case of `NCCCC[C@@H](C(=O)O)N(CC(=O)O)CC(=O)O` [K, 6-Amino-2-(bis-carboxymethyl-amino)-hexanoic acid], the Ki was over 500 nM.

Staying with this experiment, now noted: Table 3, very good ACE-2 inhibiting compounds; species not given; read-out: ACE-2 Activity, Ki.
For `CC(C)C[C@H](N[C@@H](Cc1cncn1Cc1cc(Cl)cc(Cl)c1)C(=O)OCc1ccccc1)C(=O)O` (single isomer, unassigned) [LC, 2-(1-Benzyloxycarbonyl-2-[3-(3,5-dichloro-benzyl)-3H-imidazol-4-yl]-ethylamino]-4-methyl-pentanoic acid], the Ki is under 50 nM. Same read-out and setting: for `CC(C)C[C@H](N[C@@H](CC1COC(=O)N1Cc1cc(Cl)cc(Cl)c1)C(=O)O)C(=O)O` (stereo in doubt) [NE, (S,S,S)-2-{1-Carboxy-2-[3-(3,5-dichloro-benzyl)-2-oxo-oxazolidin-4-yl]-ethylamino}-4-methyl-pentanoic acid] the value was 50 to 100 nM; for `CC(C)C[C@H](N[C@@H](Cc1csc(-c2ccc(Cl)cc2Cl)n1)C(=O)O)C(=O)O` [KG, (S,S)-2-{1-Carboxy-2-[2-(2,4-dichloro-phenyl)-thiazol-4-yl-]-ethylamino}-4-methyl-pentanoic acid], 50 to 100 nM; for `CC(C)C[C@H](N[C@@H](Cc1csc(-c2ccc3c(c2)CCO3)n1)C(=O)O)C(=O)O` [KI, (S,S)-2-{1-Carboxy-2-[2(2,3-dihydro-benzofaran-5-yl]-thiazol-4-yl]-ethylamino}-4-methyl pentanoic acid], 50 to 100 nM. As for `CC(C)C[C@H](N[C@@H](Cc1csc(-c2ccc(F)c(Cl)c2)n1)C(=O)O)C(=O)O` [KJ, (S,S)-2-{1-Carboxy-2-[2-(3-chloro-4-fluoro-phenyl)-thiazol-4-yl-]-ethylamino}-4-methyl-pentanoic acid], the Ki fell in the range of 50 to 100 nM. Take `Cc1ccc(-c2nc(C[C@H](N[C@@H](CC(C)C)C(=O)O)C(=O)O)cs2)cc1` [KK, (S,S)-2-[1-Carboxy-2-(2-p-tolyl-thiazol-4-yl)-ethylamino]-4-methyl-pentanoic acid]: the Ki is under 50 nM.

The values are drawn from US7045532B2 (Millennium Pharmaceuticals, Inc., priority 1999, dated 2006).
